Data as given in ChEMBL document CHEMBL4732043, “The discovery of novel indazole derivatives as tubulin colchicine site binding agents that displayed potent antitumor activity both in vitro and in vivo” (Eur J Med Chem, 2020).
Values belong to the compound of their own block, whether it stands above or below them.

How the values were obtained:
A549 = test: Antiproliferative activity against human A549 cells assessed as cell viability after 72 hrs by MTT assay; assay type: functional
HCT-116 [1] = test: Antiproliferative activity against human HCT-116 cells assessed as cell viability after 72 hrs by MTT assay; assay type: functional
HepG2 = test: Antiproliferative activity against human HepG2 cells assessed as cell viability after 72 hrs by MTT assay; assay type: functional
HCT-116 [2] = test: Induction of apoptosis in human HCT-116 cells assessed as viable cells at 40 nM after 24 hrs by annexinV and 7-ADD staining based flow cytometry (reference value: 96.7%); assay type: functional; details: read-out: Activity
HCT-116 [3] = test: Induction of apoptosis in human HCT-116 cells assessed as early apoptotic cells at 40 nM after 24 hrs by annexinV and 7-ADD staining based flow cytometry (reference value: 0.9%); assay type: functional
[4] = Cytotoxicity against HUVEC assessed as cell viability after 72 hrs by MTT assay; assay type: cell-based; details: human, HUVEC cells
[5] = Toxicity in nude mouse xenografted with human HCT-116 cells assessed as change in body weight at 12.5 mg/kg, po for 21 days (reference value: 2.2%); assay type: organism-based; details: in vivo, 504 h, time 21 day
HCT-116 [6] = test: Induction of apoptosis in human HCT-116 cells assessed as late apoptotic cells at 10 nM after 24 hrs by annexinV and 7-ADD staining based flow cytometry (reference value: 1.5%); assay type: functional
HCT-116 [7] = test: Induction of apoptosis in human HCT-116 cells assessed as viable cells at 10 nM after 24 hrs by annexinV and 7-ADD staining based flow cytometry (reference value: 96.7%); assay type: functional; details: read-out: Activity
[8] = Toxicity in nude mouse xenografted with human HCT-116 cells assessed as change in body weight at 25 mg/kg, po for 21 days (reference value: 2.2%); assay type: organism-based; details: in vivo, 504 h, time 21 day
HT-29 = test: Antiproliferative activity against human HT-29 cells assessed as cell viability after 72 hrs by MTT assay; assay type: functional
HCT-116 [9] = test: Induction of apoptosis in human HCT-116 cells assessed as viable cells at 20 nM after 24 hrs by annexinV and 7-ADD staining based flow cytometry (reference value: 96.7%); assay type: functional; details: read-out: Activity
HCT-116 [10] = test: Induction of apoptosis in human HCT-116 cells assessed as necrotic cells at 20 nM after 24 hrs by annexinV and 7-ADD staining based flow cytometry (reference value: 0.9%); assay type: functional
HCT-116 [11] = test: Induction of apoptosis in human HCT-116 cells assessed as necrotic cells at 40 nM after 24 hrs by annexinV and 7-ADD staining based flow cytometry (reference value: 0.9%); assay type: functional
Tubulin (Homo sapiens) [12] = molecular target: T1, Tubulin (Homo sapiens) (UniProt P68371+Q9H4B7+P0DPH7+P68366+Q13509+Q71U36+P04350+Q3ZCM7+P07437+P68363+Q9BQE3+Q6PEY2+Q13885+Q9BVA1+Q9BUF5); test: Inhibition of tubulin polymerization in human HCT-116 cells assessed as complete microtubule depolymerization at 40 nM after 24 hrs by immunofluorescence analysis; assay type: cell-based
HCT-116 [13] = test: Induction of cell cycle arrest in human HCT-116 cells assessed as accumulation of cells at S phase at 20 nM after 24 hrs by flow cytometry (reference value: 43.12%); assay type: functional
HCT-116 [14] = test: Induction of apoptosis in human HCT-116 cells assessed as late apoptotic cells at 20 nM after 24 hrs by annexinV and 7-ADD staining based flow cytometry (reference value: 1.5%); assay type: functional
1-87 tumor cell line = test: (§1) Inhibition of porcine brain tubulin polymerization by fluorescence based assay; details: Sus scrofa domesticus
[15] = as §1; assay type: cell-based, Sus scrofa domesticus, 1-87 tumor cell line
HCT-116 [16] = test: Induction of cell cycle arrest in human HCT-116 cells assessed as accumulation of cells at G1 phase at 20 nM after 24 hrs by flow cytometry (reference value: 40.5%); assay type: functional
[17] = molecular target: Vascular endothelial growth factor receptor 2 (Homo sapiens) (UniProt P35968); test: Inhibition of human KDR expressed in mammalian expression system at 10 uM by radiometric assay
Chain of Vascular endothelial growth factor receptor 2 (Homo sapiens) (P35968 whole entry): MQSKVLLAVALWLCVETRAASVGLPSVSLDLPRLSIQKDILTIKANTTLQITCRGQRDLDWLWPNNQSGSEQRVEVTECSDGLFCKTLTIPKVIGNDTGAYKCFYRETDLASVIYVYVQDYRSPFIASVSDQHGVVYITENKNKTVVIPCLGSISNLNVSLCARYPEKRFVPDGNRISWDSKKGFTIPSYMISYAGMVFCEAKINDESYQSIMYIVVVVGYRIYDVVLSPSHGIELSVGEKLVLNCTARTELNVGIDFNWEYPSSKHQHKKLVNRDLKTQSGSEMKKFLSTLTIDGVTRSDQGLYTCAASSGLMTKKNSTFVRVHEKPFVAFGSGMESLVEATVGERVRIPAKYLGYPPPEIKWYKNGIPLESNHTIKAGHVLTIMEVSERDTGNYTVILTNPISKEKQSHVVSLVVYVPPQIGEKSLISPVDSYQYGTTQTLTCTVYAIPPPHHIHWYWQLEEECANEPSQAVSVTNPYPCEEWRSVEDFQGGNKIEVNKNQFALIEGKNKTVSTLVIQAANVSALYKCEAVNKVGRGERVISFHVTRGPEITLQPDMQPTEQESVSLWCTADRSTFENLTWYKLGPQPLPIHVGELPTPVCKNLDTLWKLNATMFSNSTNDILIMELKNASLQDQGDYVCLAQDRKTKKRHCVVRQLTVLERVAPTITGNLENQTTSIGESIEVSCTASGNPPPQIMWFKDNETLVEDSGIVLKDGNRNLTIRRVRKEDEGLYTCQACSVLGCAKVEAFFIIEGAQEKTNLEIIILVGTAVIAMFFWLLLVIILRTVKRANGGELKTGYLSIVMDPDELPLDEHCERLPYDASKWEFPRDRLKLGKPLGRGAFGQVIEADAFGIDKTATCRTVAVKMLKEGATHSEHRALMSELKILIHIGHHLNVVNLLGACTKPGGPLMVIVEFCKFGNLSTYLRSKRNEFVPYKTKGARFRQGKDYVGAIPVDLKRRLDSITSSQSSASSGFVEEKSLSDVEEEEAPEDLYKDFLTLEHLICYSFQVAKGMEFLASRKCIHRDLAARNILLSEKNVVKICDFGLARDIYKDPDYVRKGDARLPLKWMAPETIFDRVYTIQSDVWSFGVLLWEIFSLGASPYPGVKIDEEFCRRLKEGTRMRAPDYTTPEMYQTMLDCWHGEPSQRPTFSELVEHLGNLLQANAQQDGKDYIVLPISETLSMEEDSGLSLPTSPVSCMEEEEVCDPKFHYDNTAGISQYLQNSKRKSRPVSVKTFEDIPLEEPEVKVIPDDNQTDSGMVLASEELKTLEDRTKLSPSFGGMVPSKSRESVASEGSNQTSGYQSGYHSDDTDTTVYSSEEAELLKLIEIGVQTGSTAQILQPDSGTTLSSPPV

HCT-116 [18] = test: Induction of apoptosis in human HCT-116 cells assessed as early apoptotic cells at 10 nM after 24 hrs by annexinV and 7-ADD staining based flow cytometry (reference value: 0.9%); assay type: functional
[19] = molecular target: Proto-oncogene tyrosine-protein kinase Src (Homo sapiens) (UniProt P12931); test: Inhibition of human recombinant c-SRC (1-530 aa) at 10 uM by radiometric assay
Chain of Proto-oncogene tyrosine-protein kinase Src (Homo sapiens) (P12931 2-536 limits assumed): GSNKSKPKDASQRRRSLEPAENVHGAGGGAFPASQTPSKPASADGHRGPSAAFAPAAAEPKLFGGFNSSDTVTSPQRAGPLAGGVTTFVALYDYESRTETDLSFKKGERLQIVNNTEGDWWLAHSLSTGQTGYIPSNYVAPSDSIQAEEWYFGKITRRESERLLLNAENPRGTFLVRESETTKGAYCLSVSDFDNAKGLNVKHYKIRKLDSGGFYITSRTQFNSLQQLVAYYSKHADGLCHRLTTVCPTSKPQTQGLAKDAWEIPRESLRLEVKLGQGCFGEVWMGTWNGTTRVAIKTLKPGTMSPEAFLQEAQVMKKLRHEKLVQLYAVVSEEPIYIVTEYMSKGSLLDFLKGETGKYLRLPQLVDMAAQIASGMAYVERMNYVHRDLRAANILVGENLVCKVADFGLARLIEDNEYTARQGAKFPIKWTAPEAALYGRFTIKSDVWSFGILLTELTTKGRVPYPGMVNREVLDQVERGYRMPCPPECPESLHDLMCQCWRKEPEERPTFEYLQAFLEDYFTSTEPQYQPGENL

HCT-116 [20] = test: Antitumor activity against human HCT-116 cells xenografted in nude mouse assessed as inhibition of tumor growth at 25 mg/kg, po for 21 days; assay type: functional; details: HCT-116, po, 504 h, time 21 day, read-out: TGI
Tubulin (Homo sapiens) [21] = molecular target: T1, Tubulin (Homo sapiens); test: Inhibition of tubulin polymerization in human HCT-116 cells assessed as microtubule network polymerization after 24 hrs by immunofluorescence analysis; assay type: cell-based; details: dose 20-40 nM
SW-620 = test: Antiproliferative activity against human SW-620 cells assessed as cell viability after 72 hrs by MTT assay; assay type: functional
HCT-116 [22] = test: Induction of cell cycle arrest in human HCT-116 cells assessed as accumulation of cells at G1 phase at 10 nM after 24 hrs by flow cytometry (reference value: 40.5%); assay type: functional
HCT-116 [23] = test: Induction of cell cycle arrest in human HCT-116 cells assessed as accumulation of cells at G2/M phase at 20 nM after 24 hrs by flow cytometry (reference value: 16.35%); assay type: functional
HCT-116 [24] = test: Antitumor activity against human HCT-116 cells xenografted in nude mouse assessed as inhibition of tumor growth at 12.5 mg/kg, po for 21 days; assay type: functional; details: HCT-116, po, 504 h, time 21 day, read-out: TGI
HCT-116 [25] = test: Induction of cell cycle arrest in human HCT-116 cells assessed as accumulation of cells at S phase at 10 nM after 24 hrs by flow cytometry (reference value: 43.12%); assay type: functional
HCT-116 [26] = test: Induction of apoptosis in human HCT-116 cells assessed as late apoptotic cells at 40 nM after 24 hrs by annexinV and 7-ADD staining based flow cytometry (reference value: 1.5%); assay type: functional
HCT-116 [27] = test: Induction of apoptosis in human HCT-116 cells assessed as early apoptotic cells at 20 nM after 24 hrs by annexinV and 7-ADD staining based flow cytometry (reference value: 0.9%); assay type: functional
Tubulin (Homo sapiens) [28] = molecular target: T1, Tubulin (Homo sapiens); test: Inhibition of tubulin polymerization in human HCT-116 cells assessed as microtubule spindle formation after 24 hrs by immunofluorescence analysis; assay type: cell-based; details: dose 20-40 nM
[29] = molecular target: Tubulin beta (Homo sapiens) (UniProt P68371+Q9H4B7+Q13509+P04350+Q3ZCM7+P07437+Q13885+Q9BVA1+Q9BUF5+A6NNZ2); test: Inhibition of N,N'-Ethylenebis(iodoacetamide) binding to beta-tubulin in human HCT-116 cells assessed as reduction in EBI/beta-tubulin adduct formation preincubated for 2 hrs followed by EBI addition and measured after 1.5 hrs by Western blot analysis; assay type: cell-based; details: dose 0.2-25 µM, time 3.5 hrs
[30] = molecular target: Protein kinase C alpha type (Homo sapiens) (UniProt P17252); test: Inhibition of human recombinant PKCalpha at 10 uM by radiometric assay
HCT-116 [31] = test: Induction of cell cycle arrest in human HCT-116 cells assessed as accumulation of cells at G2/M phase at 10 nM after 24 hrs by flow cytometry (reference value: 16.35%); assay type: functional
HCT-116 [32] = test: Induction of apoptosis in human HCT-116 cells assessed as necrotic cells at 10 nM after 24 hrs by annexinV and 7-ADD staining based flow cytometry (reference value: 0.9%); assay type: functional

SMILES: COc1ccc2c(Nc3ccc4c(c3)OCO4)n[nH]c2c1
- GI50 (A549): > 25 µM
- GI50 (HCT-116 [1]): > 25 µM
- GI50 (HepG2): > 25 µM

SMILES: COc1ccc(Nc2n[nH]c3cc(C)ccc23)cc1
- GI50 (A549): > 25 µM
- GI50 (HCT-116 [1]): > 25 µM
- GI50 (HepG2): > 25 µM

SMILES: COc1cc(Nc2n[nH]c3ccccc23)cc(OC)c1OC
- GI50 (A549): 19.4 µM
- GI50 (HCT-116 [1]): 18.9 µM
- GI50 (HepG2): 24.1 µM

SMILES: Cc1ccc2c(Nc3ccc4c(c3)OCO4)n[nH]c2c1
- GI50 (A549): > 25 µM
- GI50 (HCT-116 [1]): 23.7 µM
- GI50 (HepG2): > 25 µM

SMILES: COc1cc(Nc2n[nH]c3cc(F)ccc23)cc(OC)c1OC
- GI50 (A549): 21.3 µM
- GI50 (HCT-116 [1]): 5.3 µM
- GI50 (HepG2): 16 µM

SMILES: COc1cc(Nc2n[nH]c3cccc(C)c23)cc(OC)c1OC
- GI50 (A549): 6.1 µM
- GI50 (HCT-116 [1]): 9.3 µM
- GI50 (HepG2): 10.1 µM

SMILES: COc1ccc(Nc2n[nH]c3ccc(C)cc23)cc1
- GI50 (A549): > 25 µM
- GI50 (HCT-116 [1]): > 25 µM
- GI50 (HepG2): > 25 µM

Now those with a lower GI50 (A549), led by results:

- GI50 (A549): 4.3 µM
- GI50 (HCT-116 [1]): 4.6 µM
- GI50 (HepG2): 5.4 µM
SMILES: COc1cc(Nc2n[nH]c3c(C)cccc23)cc(OC)c1OC

- GI50 (A549): 0.99 µM
- GI50 (HCT-116 [1]): 2.26 µM
- GI50 (HepG2): 0.63 µM
SMILES: COc1ccc(Nc2n[nH]c3cc(C)ccc23)cc1OC

- GI50 (A549): 0.51 µM
- GI50 (HCT-116 [1]): 0.96 µM
- GI50 (HepG2): 0.78 µM
SMILES: COc1cc(Nc2n[nH]c3cc(OC)ccc23)cc(OC)c1

- GI50 (A549): 0.167 µM
- GI50 (HCT-116 [1]): 0.006 µM
- GI50 (HepG2): 0.002 µM
SMILES: COc1ccc(/C=C\c2cc(OC)c(OC)c(OC)c2)cc1O [COMBRETASTATIN A4]

- GI50 (A549): 0.065 µM
- GI50 (HCT-116 [1]): 0.041 µM
- GI50 (HT-29): 0.096 µM
- inhibition (Tubulin (Homo sapiens) [12]): 100%
- IC50 [15]: 4.77 µM
- inhibition [17]: 66%
- inhibition [19]: 35%
- inhibition (Tubulin (Homo sapiens) [21]): Dose-dependent effect
- GI50 (SW-620): 0.024 µM
- inhibition (Tubulin (Homo sapiens) [28]): Dose-dependent effect
- inhibition [29]: Dose-dependent effect
- GI50 (HepG2): 0.053 µM
- inhibition [30]: 24%
SMILES: COc1ccc2c(Nc3cc(OC)c(OC)c(OC)c3)n[nH]c2c1
- viability at 0.04 µM (HCT-116 [2]): 66.2%
- Activity (HCT-116 [3]): 12.8%
- GI50 at 72 h [4]: > 25 µM
- Activity [5]: 2.8%
- Activity (HCT-116 [6]): 10.1%
- viability at 0.01 µM (HCT-116 [7]): 81.8%
- Activity [8]: 1.1%
- viability at 0.02 µM (HCT-116 [9]): 79.2%
- Activity (HCT-116 [10]): 2.6%
- Activity (HCT-116 [11]): 3.5%
- Activity (HCT-116 [13]): 6.04%
- Activity (HCT-116 [14]): 13.1%
- inhibition (1-87 tumor cell line): Dose-dependent effect
- Activity (HCT-116 [16]): 6.85%
- Activity (HCT-116 [18]): 5.1%
- inhibition in vivo at 25 mg/kg (HCT-116 [20]): 59.9%
- Activity (HCT-116 [22]): 36.86%
- Activity (HCT-116 [23]): 87.12%
- inhibition in vivo at 12.5 mg/kg (HCT-116 [24]): 34.3%
- Activity (HCT-116 [25]): 41.56%
- Activity (HCT-116 [26]): 17.6%
- Activity (HCT-116 [27]): 5.2%
- Activity (HCT-116 [31]): 21.57%
- Activity (HCT-116 [32]): 3.1%
